Assay results from PMC11822212, “High-throughput screening identifies Aurora kinase B as a critical therapeutic target for Merkel cell carcinoma” (Nature Communications, 2025).
Several values for one entry are separate records, joined by “and”; a condition that tells them apart may be missing. Equal values may be shown once. Where a name gives a salt, the structure may show the parent alone. Read-outs that look alike come from different tables or passages of the source.

What was measured:
Assay in all cases: qHTS cell viability (CellTiter-Glo, 72 h; primary and follow-up small molecule screen)
Assay type in all cases: cell-based, human
MCC13 cells (VN-MCC) = system: MCC13 cells (VN-MCC)
MCC26 cells (VN-MCC) = system: MCC26 cells (VN-MCC)
MKL-2 cells (VP-MCC) = system: MKL-2 cells (VP-MCC)
UISO cells (VN-MCC) = system: UISO cells (VN-MCC)
WAGA cells (VP-MCC) = system: WAGA cells (VP-MCC)
MKL-1 cells (VP-MCC) = system: MKL-1 cells (VP-MCC)
[1] = follow-up screen, MCC13, replicate 1
[2] = follow-up screen, MCC13, replicate 2
[3] = follow-up screen, MCC13, replicate 3
[4] = follow-up screen, MCC26, replicate 1
[5] = follow-up screen, MCC26, replicate 2
[6] = follow-up screen, MCC26, replicate 3
[7] = follow-up screen, MKL-2, replicate 1
[8] = follow-up screen, MKL-2, replicate 2
[9] = follow-up screen, MKL-2, replicate 3
[10] = follow-up screen, UISO, replicate 1
[11] = follow-up screen, UISO, replicate 2
[12] = follow-up screen, UISO, replicate 3
[13] = follow-up screen, WAGA, replicate 1
[14] = follow-up screen, WAGA, replicate 2
[15] = follow-up screen, WAGA, replicate 3
[16] = follow-up screen, MKL-1, replicate 1
[17] = follow-up screen, MKL-1, replicate 2
[18] = follow-up screen, MKL-1, replicate 3

Structure (SMILES)	Area under the dose-response curve (AUC) MCC13 Replicate 1 (MCC13 cells (VN-MCC); [1])	Area under the dose-response curve (AUC) MCC13 Replicate 2 (MCC13 cells (VN-MCC); [2])	Area under the dose-response curve (AUC) MCC13 Replicate 3 (MCC13 cells (VN-MCC); [3])	Area under the dose-response curve (AUC) MCC26 Replicate 1 (MCC26 cells (VN-MCC); [4])	Area under the dose-response curve (AUC) MCC26 Replicate 2 (MCC26 cells (VN-MCC); [5])	Area under the dose-response curve (AUC) MCC26 Replicate 3 (MCC26 cells (VN-MCC); [6])	Area under the dose-response curve (AUC) MKL-2 Replicate 1 (MKL-2 cells (VP-MCC); [7])	Area under the dose-response curve (AUC) MKL-2 Replicate 2 (MKL-2 cells (VP-MCC); [8])	Area under the dose-response curve (AUC) MKL-2 Replicate 3 (MKL-2 cells (VP-MCC); [9])	Area under the dose-response curve (AUC) UISO Replicate 1 (UISO cells (VN-MCC); [10])	Area under the dose-response curve (AUC) UISO Replicate 2 (UISO cells (VN-MCC); [11])	Area under the dose-response curve (AUC) UISO Replicate 3 (UISO cells (VN-MCC); [12])	Area under the dose-response curve (AUC) WAGA Replicate 1 (WAGA cells (VP-MCC); [13])	Area under the dose-response curve (AUC) WAGA Replicate 2 (WAGA cells (VP-MCC); [14])	Area under the dose-response curve (AUC) WAGA Replicate 3 (WAGA cells (VP-MCC); [15])	Area under the dose-response curve (AUC) MKL-1 Replicate 1 (MKL-1 cells (VP-MCC); [16])	Area under the dose-response curve (AUC) MKL-1 Replicate 2 (MKL-1 cells (VP-MCC); [17])	Area under the dose-response curve (AUC) MKL-1 Replicate 3 (MKL-1 cells (VP-MCC); [18])	further results
C[C@@H]1O[C@@H](O[C@H]2C[C@@H](O)[C@]3(CO)[C@H]4[C@H](O)C[C@]5(C)[C@@H](C6=CC(=O)OC6)CC[C@]5(O)[C@@H]4CC[C@]3(O)C2)[C@H](O)[C@H](O)[C@H]1O [G-Strophanthin]	250.1	222.2	219.6	280.5	322.9	231.8	279.7	288.8	290.5	241.1	235.2	205.5	307.5	286.8	292.2	297.3	274.0	262.6	
O=c1c(O)c(-c2ccccc2)oc2cc(O)cc(O)c12 [GALANGIN]	501.1	489.1	476.8	408.8	418.1	468.3	358.3	486.3	480.7	448.5	479.0	418.3	517.0	423.5	495.5	418.0	452.0	473.1	
CC(C)=CCC[C@]1(C)C=Cc2c(O)c3c(c(CC=C(C)C)c2O1)O[C@]12C(=C[C@@H]4C[C@H]1C(C)(C)O[C@@]2(C/C=C(/C)C(=O)O)C4=O)C3=O [GAMBOGIC ACID]	387.5	370.7	367.8	329.0	325.1	343.3	279.3	285.4	317.0	286.6	299.4	341.5	304.1	265.2	369.1	308.8	334.5	328.9	
O=C(/C=C/c1ccc(/C=C/C(=O)Nc2ccc(C3=NCCN3)cc2)cc1)Nc1ccc(C2=NCCN2)cc1 [GW 4869]																			Area under the dose-response curve (AUC) MCC13 Replicate 1 (MCC13 cells (VN-MCC)): 485.4; Area under the dose-response curve (AUC) MCC13 Replicate 2 (MCC13 cells (VN-MCC)): 474.1; Area under the dose-response curve (AUC) MCC13 Replicate 3 (MCC13 cells (VN-MCC)): 483.0; Area under the dose-response curve (AUC) MCC26 Replicate 1 (MCC26 cells (VN-MCC)): 426.9; Area under the dose-response curve (AUC) MCC26 Replicate 2 (MCC26 cells (VN-MCC)): 422.1; Area under the dose-response curve (AUC) MCC26 Replicate 3 (MCC26 cells (VN-MCC)): 445.3; Area under the dose-response curve (AUC) MKL-2 Replicate 1 (MKL-2 cells (VP-MCC)): 446.9; Area under the dose-response curve (AUC) MKL-2 Replicate 2 (MKL-2 cells (VP-MCC)): 473.7; Area under the dose-response curve (AUC) MKL-2 Replicate 3 (MKL-2 cells (VP-MCC)): 455.4; Area under the dose-response curve (AUC) UISO Replicate 1 (UISO cells (VN-MCC)): 438.7; Area under the dose-response curve (AUC) UISO Replicate 2 (UISO cells (VN-MCC)): 454.7; Area under the dose-response curve (AUC) UISO Replicate 3 (UISO cells (VN-MCC)): 432.9; Area under the dose-response curve (AUC) WAGA Replicate 1 (WAGA cells (VP-MCC)): 473.9; Area under the dose-response curve (AUC) WAGA Replicate 2 (WAGA cells (VP-MCC)): 513.7; Area under the dose-response curve (AUC) WAGA Replicate 3 (WAGA cells (VP-MCC)): 487.4; Area under the dose-response curve (AUC) MKL-1 Replicate 1 (MKL-1 cells (VP-MCC)): 478.1; Area under the dose-response curve (AUC) MKL-1 Replicate 2 (MKL-1 cells (VP-MCC)): 455.5; Area under the dose-response curve (AUC) MKL-1 Replicate 3 (MKL-1 cells (VP-MCC)): 501.6
CCC(=O)NC[C@H](Cc1ccc(OCCc2nc(-c3ccccc3)oc2C)cc1)N/C(C)=C\C(=O)c1ccc(C(F)(F)F)cc1 [GW-6471]																			Area under the dose-response curve (AUC) MCC13 Replicate 1 (MCC13 cells (VN-MCC)): 508.4; Area under the dose-response curve (AUC) MCC13 Replicate 2 (MCC13 cells (VN-MCC)): 489.8; Area under the dose-response curve (AUC) MCC13 Replicate 3 (MCC13 cells (VN-MCC)): 459.0; Area under the dose-response curve (AUC) MCC26 Replicate 1 (MCC26 cells (VN-MCC)): 466.5; Area under the dose-response curve (AUC) MCC26 Replicate 2 (MCC26 cells (VN-MCC)): 438.7; Area under the dose-response curve (AUC) MCC26 Replicate 3 (MCC26 cells (VN-MCC)): 475.7; Area under the dose-response curve (AUC) MKL-2 Replicate 1 (MKL-2 cells (VP-MCC)): 432.8; Area under the dose-response curve (AUC) MKL-2 Replicate 2 (MKL-2 cells (VP-MCC)): 489.1; Area under the dose-response curve (AUC) MKL-2 Replicate 3 (MKL-2 cells (VP-MCC)): 475.3; Area under the dose-response curve (AUC) UISO Replicate 1 (UISO cells (VN-MCC)): 430.2; Area under the dose-response curve (AUC) UISO Replicate 2 (UISO cells (VN-MCC)): 426.3; Area under the dose-response curve (AUC) UISO Replicate 3 (UISO cells (VN-MCC)): 403.1; Area under the dose-response curve (AUC) WAGA Replicate 1 (WAGA cells (VP-MCC)): 517.9; Area under the dose-response curve (AUC) WAGA Replicate 2 (WAGA cells (VP-MCC)): 512.0; Area under the dose-response curve (AUC) WAGA Replicate 3 (WAGA cells (VP-MCC)): 484.1; Area under the dose-response curve (AUC) MKL-1 Replicate 1 (MKL-1 cells (VP-MCC)): 475.3; Area under the dose-response curve (AUC) MKL-1 Replicate 2 (MKL-1 cells (VP-MCC)): 443.7; Area under the dose-response curve (AUC) MKL-1 Replicate 3 (MKL-1 cells (VP-MCC)): 500.6
O=c1c(O)c(-c2ccccc2)oc2cc(O)cc(O)c12 [Galangin]	503.7	491.8	491.4	449.4	457.3	461.1	477.3	508.2	500.6	481.0	489.8	457.6	519.0	499.5	488.3	490.3	490.8	492.0	
CCOC(=O)c1cnc2ccc(-c3cncc(NS(=O)(=O)c4ccccc4)c3)cn12 [HS-173]																			Area under the dose-response curve (AUC) (MCC13 cells (VN-MCC)): 410.4 and 416.6 and 423.4; Area under the dose-response curve (AUC) (MCC26 cells (VN-MCC)): 371.1 and 368.1 and 383.3; Area under the dose-response curve (AUC) (MKL-2 cells (VP-MCC)): 425.2 and 393.3 and 372.1; Area under the dose-response curve (AUC) (UISO cells (VN-MCC)): 373.6 and 378.4 and 376.1; Area under the dose-response curve (AUC) (WAGA cells (VP-MCC)): 390.4 and 391.0 and 384.0; Area under the dose-response curve (AUC) (MKL-1 cells (VP-MCC)): 400.2 and 402.4 and 398.2
CCN(CCO)CCCC(C)Nc1ccnc2cc(Cl)ccc12 (stereo not drawn) [Hydroxychloroquine sulfate]	495.6	487.6	467.0	423.8	423.8	468.3	454.2	416.6	490.5	504.6	448.6	420.1	540.2	519.3	458.7	541.8	486.3	499.9	
CC(=O)[C@]1(O)Cc2c(O)c3c(c(O)c2[C@@H](O[C@H]2C[C@H](N)[C@H](O)[C@H](C)O2)C1)C(=O)c1ccccc1C3=O [Idarubicin hydrochloride]	321.5	353.4	356.2	293.6	292.8	227.6	203.6	200.3	265.0	184.7	180.9	186.4	205.3	258.0	233.3	222.7	242.3	233.3	
Oc1ccc(C2=Cc3ccc(O)cc3OC2)cc1 [Idronoxil]																			Area under the dose-response curve (AUC) (MCC13 cells (VN-MCC)): 415.6 and 455.9 and 456.9; Area under the dose-response curve (AUC) (MCC26 cells (VN-MCC)): 408.0 and 413.9 and 448.0; Area under the dose-response curve (AUC) (MKL-2 cells (VP-MCC)): 351.5 and 302.3 and 331.4; Area under the dose-response curve (AUC) (UISO cells (VN-MCC)): 422.5 and 447.1 and 401.0; Area under the dose-response curve (AUC) (WAGA cells (VP-MCC)): 395.2 and 366.0 and 386.6; Area under the dose-response curve (AUC) (MKL-1 cells (VP-MCC)): 285.6 and 303.3 and 334.8
